From ChEMBL document CHEMBL1129052, “2-[(2-Aminobenzyl)sulfinyl]-1-(2-pyridyl)-1,4,5,6-tetrahydrocyclopent[d]imidazoles as a novel class of gastric H+/K+-ATPase inhibitors” (J Med Chem, 1996)

Legend:
[1] = target: Potassium-transporting ATPase (Sus scrofa, UniProt P19156); experiment: In vitro inhibition against H+/K+ ATPase from porcine gastric mucosal membrane vesicles; assay type: tissue-based, Gastric mucosa
[2] = target: Potassium-transporting ATPase (Rattus norvegicus) (UniProt P09626+P18598); experiment: Gastric antisecretory activity was tested in rats at 30 mg/kg, po expressed as the percentage of inhibition against the acid output of the control group; assay type: functional, organism-based; parameters: dose 30 mg/kg
[3] = target: Potassium-transporting ATPase (Sus scrofa, UniProt P18434+P19156); experiment: Inhibition of H+/K+ ATPase from porcine gastric mucosal membrane vesicles; assay type: tissue-based, Gastric mucosa
Potassium-transporting ATPase (Sus scrofa, UniProt P18434+P19156), sequence (P18434 whole entry): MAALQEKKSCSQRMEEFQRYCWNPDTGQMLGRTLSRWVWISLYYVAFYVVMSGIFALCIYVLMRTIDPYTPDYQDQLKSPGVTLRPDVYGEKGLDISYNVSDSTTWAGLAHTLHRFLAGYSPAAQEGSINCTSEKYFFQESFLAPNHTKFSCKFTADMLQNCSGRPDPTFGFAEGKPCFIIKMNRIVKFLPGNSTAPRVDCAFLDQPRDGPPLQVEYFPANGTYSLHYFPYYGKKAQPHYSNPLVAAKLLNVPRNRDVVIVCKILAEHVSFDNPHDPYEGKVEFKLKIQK
Potassium-transporting ATPase (Sus scrofa, UniProt P18434+P19156), sequence (P19156 whole entry): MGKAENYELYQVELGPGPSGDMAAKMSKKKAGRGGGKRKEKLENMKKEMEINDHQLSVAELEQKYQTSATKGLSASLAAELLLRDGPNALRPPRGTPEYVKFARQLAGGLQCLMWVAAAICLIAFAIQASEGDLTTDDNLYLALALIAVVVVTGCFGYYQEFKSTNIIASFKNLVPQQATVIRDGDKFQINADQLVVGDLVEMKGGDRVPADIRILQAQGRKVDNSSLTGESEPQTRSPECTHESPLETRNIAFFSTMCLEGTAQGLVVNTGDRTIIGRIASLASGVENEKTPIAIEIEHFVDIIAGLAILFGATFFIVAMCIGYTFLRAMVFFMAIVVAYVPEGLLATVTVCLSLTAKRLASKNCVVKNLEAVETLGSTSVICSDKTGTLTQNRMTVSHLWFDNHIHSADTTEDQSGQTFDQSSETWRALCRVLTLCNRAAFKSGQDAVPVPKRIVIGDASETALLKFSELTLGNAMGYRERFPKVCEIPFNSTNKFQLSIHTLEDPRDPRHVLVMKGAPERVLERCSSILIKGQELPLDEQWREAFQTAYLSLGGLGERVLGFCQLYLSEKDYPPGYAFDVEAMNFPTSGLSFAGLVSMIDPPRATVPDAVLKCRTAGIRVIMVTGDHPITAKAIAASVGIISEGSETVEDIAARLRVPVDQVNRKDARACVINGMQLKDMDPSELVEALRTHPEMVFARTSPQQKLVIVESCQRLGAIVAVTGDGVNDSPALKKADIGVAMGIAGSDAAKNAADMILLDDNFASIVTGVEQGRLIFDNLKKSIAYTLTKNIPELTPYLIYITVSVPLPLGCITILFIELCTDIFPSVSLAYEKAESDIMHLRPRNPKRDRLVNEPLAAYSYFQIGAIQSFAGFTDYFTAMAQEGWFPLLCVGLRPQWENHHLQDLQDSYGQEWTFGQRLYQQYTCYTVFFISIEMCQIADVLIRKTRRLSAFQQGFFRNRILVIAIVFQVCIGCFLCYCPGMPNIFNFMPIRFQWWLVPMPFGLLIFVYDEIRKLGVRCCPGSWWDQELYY

Potassium-transporting ATPase (Sus scrofa, UniProt P19156), sequence (P18434 whole entry): as the sequence (P18434 whole entry) above
Potassium-transporting ATPase (Sus scrofa, UniProt P19156), sequence (P19156 whole entry): as the sequence (P19156 whole entry) above

| IC50 [1] [µM] | inhibition [2] [%] | IC50 [3] | Structure (SMILES) |
| --- | --- | --- | --- |
| 32 | 98 | – | CN(C)c1ccccc1C[S+]([O-])c1nccn1C (configuration not stated) |
| 44 | 47 | – | Cc1ccc(-n2ccnc2[S+]([O-])Cc2ccccc2N(C)C)nc1 (configuration not stated) |
| – | 39 | Not Active | COc1cccnc1-n1ccnc1[S+]([O-])Cc1ccccc1-n1cccc1 (configuration not stated) |
| 12 | 2 | – | CC(=O)Oc1cccnc1-n1ccnc1[S+]([O-])Cc1ccccc1N(C)C (configuration not stated) |
| 68 | 20 | – | CN(C)c1ccccc1C[S+]([O-])c1nc2c(n1-c1ccccc1)CCC2 (configuration not stated) |
| 12 | 13 | – | COc1cnc(-n2ccnc2[S+]([O-])Cc2ccccc2N(C)C)cc1OC (configuration not stated) |
| 50 | 46 | – | Cc1cc(Br)cnc1-n1ccnc1[S+]([O-])Cc1ccccc1N(C)C (configuration not stated) |
| – | 22 | Not Active | [O-][S+](Cc1ccccc1-n1ccnc1)c1nccn1-c1ccccn1 (configuration not stated) |
| 46 | 100 | – | CN(C)c1ccccc1C[S+]([O-])c1nccn1Cc1ccccn1 (configuration not stated) |
| – | 75 | Not Active | CC(=O)Nc1ccccc1C[S+]([O-])c1nc2c(n1-c1ccccn1)CCC2 (configuration not stated) |
| 33 | 100 | – | Cc1cccnc1-n1ccnc1[S+]([O-])Cc1ccccc1N(C)C (configuration not stated) |
| – | 0 | Not Active | CN(C)c1ccccc1C[S+]([O-])c1nc(-c2ccccc2)c(-c2ccccc2)[nH]1 (configuration not stated) |
| – | 62 | Not Active | COc1cccnc1-n1ccnc1[S+]([O-])Cc1ccccc1N1CCCCC1 (configuration not stated) |
| – | 85 | Not Active | COc1cccnc1-n1ccnc1[S+]([O-])Cc1ccccc1N1CCOCC1 (configuration not stated) |
| – | 100 | Not Active | [O-][S+](Cc1ccccc1N1CCCCC1)c1nccn1-c1ccccn1 (configuration not stated) |
| 27 | 29 | – | Nc1ccccc1C[S+]([O-])c1nccn1-c1ccccn1 (configuration not stated) |
| 7.4 | 36 | – | CN(C)c1ccccc1C[S+]([O-])c1nccn1-c1ccc(C(F)(F)F)cn1 (configuration not stated) |
| – | 99 | Not Active | CC(=O)Nc1ccccc1C[S+]([O-])c1nccn1-c1ccccn1 (configuration not stated) |
| 16 | 69 | – | CC(C)Oc1cccnc1-n1ccnc1[S+]([O-])Cc1ccccc1N(C)C (configuration not stated) |
| – | 94 | Not Active | CCN(CC)c1ccccc1C[S+]([O-])c1nccn1-c1ncccc1OC (configuration not stated) |
| – | 80 | Not Active | [O-][S+](Cc1ccccc1N1CCOCC1)c1nc2c(n1-c1ccccn1)CCC2 (configuration not stated) |

| IC50 [1] [µM] | inhibition [2] [%] | IC50 [3] | Structure (SMILES) |
| --- | --- | --- | --- |
| 16 | 34 | – | CN(C)c1ccccc1C[S+]([O-])c1nccn1-c1ncccc1OCc1ccccc1 (configuration not stated) |
| 7.5 | – | – | CNc1ccccc1C[S+]([O-])c1nccn1-c1ncccc1C (configuration not stated) |
| 5.5 | 76 | – | CN(C)c1ccccc1C[S+]([O-])c1nccn1-c1ccccn1 (configuration not stated) |
| 36 | 100 | – | CN(C)c1ccccc1C[S+]([O-])c1nccn1-c1ccncc1 (configuration not stated) |
| – | 47 | Not Active | Cc1cccnc1-n1ccnc1[S+]([O-])Cc1ccccc1-n1cccc1 (configuration not stated) |
| 98 | 98 | – | Cc1cccnc1-n1ccnc1[S+]([O-])Cc1ccccc1N (configuration not stated) |
| 35 | 0 | – | CN(C)c1ccccc1C[S+]([O-])c1nccn1-c1ccc(C#N)cn1 (configuration not stated) |
| 7 | 54 | – | CNc1ccccc1C[S+]([O-])c1nccn1-c1ccccn1 (configuration not stated) |
| 2.6 | 95 | – | COc1ccnc(-n2ccnc2[S+]([O-])Cc2ccccc2N(C)C)c1 (configuration not stated) |
| – | 0 | Not Active | CN(C)c1ccccc1C[S+]([O-])c1ncc(-c2ccccc2)n1C (configuration not stated) |
| 60 | 0 | – | CN(C)c1ccccc1C[S+]([O-])c1nccn1-c1ccc([N+](=O)[O-])cn1 (configuration not stated) |
| – | 21 | Not Active | [O-][S+](Cc1ccccc1-n1cccc1)c1nc2c(n1-c1ccccn1)CCC2 (configuration not stated) |
| – | 90 | Not Active | [O-][S+](Cc1ccccc1N1CCOCC1)c1nccn1-c1ccccn1 (configuration not stated) |
| 14 | 57 | – | Cc1cccc(-n2ccnc2[S+]([O-])Cc2ccccc2N(C)C)n1 (configuration not stated) |
| 6.8 | 11 | – | CN(C)c1ccccc1C[S+]([O-])c1nccn1-c1cc(OCC(F)(F)F)ccn1 (configuration not stated) |
| – | 30 | Not Active | CN(C)c1ccccc1C[S+]([O-])c1nccn1-c1cccnc1 (configuration not stated) |
| 6 | 83 | – | CNc1ccccc1C[S+]([O-])c1nccn1-c1ncccc1OC (configuration not stated) |
| – | 100 | Not Active | Cc1cccnc1-n1ccnc1[S+]([O-])Cc1ccccc1N1CCOCC1 (configuration not stated) |
| 28 | 42 | – | CN(C)c1ccccc1C[S+]([O-])c1nc2c(n1Cc1ccccc1)CCC2 (configuration not stated) |
| 43 | 65 | – | CN(C)c1ccccc1C[S+]([O-])c1nccn1-c1nccc2ccccc12 (configuration not stated) |
| 68 | 9 | – | CN(C)c1ccccc1C[S+]([O-])c1nccn1-c1ccccc1 (configuration not stated) |

| IC50 [1] [µM] | inhibition [2] [%] | IC50 [3] | Structure (SMILES) |
| --- | --- | --- | --- |
| 5.7 | 48 | – | CN(C)c1ccccc1C[S+]([O-])c1nccn1-c1ccc(N)cn1 (configuration not stated) |
| 7.5 | 82 | – | CCNc1ccccc1C[S+]([O-])c1nccn1-c1ncccc1OC (configuration not stated) |
| 18 | 100 | – | CCNc1ccccc1C[S+]([O-])c1nccn1-c1ncccc1C (configuration not stated) |
| 12 | 98 | – | COc1ccc(-n2ccnc2[S+]([O-])Cc2ccccc2N(C)C)nc1 (configuration not stated) |
| – | 82 | Not Active | Cc1cccnc1-n1ccnc1[S+]([O-])Cc1ccccc1N1CCCCC1 (configuration not stated) |
| – | 0 | Not Active | CN(C)c1ccccc1C[S+]([O-])c1ncc(-c2ccccc2)n1-c1ccccc1 (configuration not stated) |
| 4.8 | 1 | – | CN(C)c1ccccc1C[S+]([O-])c1nccn1-c1ncccc1O (configuration not stated) |
| 13 | 0 | – | CN(C)c1ccccc1C[S+]([O-])c1nccn1-c1ccc(Cl)cn1 (configuration not stated) |
| 32 | 97 | – | CN(C)c1ccccc1C[S+]([O-])c1nc2c(n1-c1ccccn1)CCC2 (configuration not stated) |
| > 100 | 87 | – | Cc1cccnc1-n1c([S+]([O-])Cc2ccccc2N(C)C)nc2c1CCC2 (configuration not stated) |
| 31 | 96 | – | CCN(CC)c1ccccc1C[S+]([O-])c1nccn1-c1ccccn1 (configuration not stated) |
| 100 | 100 | – | CCN(CC)c1ccccc1C[S+]([O-])c1nccn1-c1ncccc1C (configuration not stated) |
| – | 0 | Not Active | [O-][S+](Cc1ccccc1-n1cccn1)c1nccn1-c1ccccn1 (configuration not stated) |
| – | 0 | Not Active | CCN(CC)c1ccccc1C[S+]([O-])c1nc2c(n1-c1cccnc1)CCC2 (configuration not stated) |
| 2.5 | 79 | – | Cc1ccnc(-n2ccnc2[S+]([O-])Cc2ccccc2N(C)C)c1 (configuration not stated) |
| – | 38 | Not Active | CCN(CC)c1ccccc1C[S+]([O-])c1nc2c(n1Cc1ccccn1)CCC2 (configuration not stated) |
| 44 | 87 | – | CN(C)c1ccccc1C[S+]([O-])c1nccn1CCc1ccccn1 (configuration not stated) |
| – | 53 | Not Active | CCN(CC)c1ccccc1C[S+]([O-])c1nc2c(n1-c1ncccc1C)CCC2 (configuration not stated) |
| 59 | 12 | – | CN(C)c1ccccc1C[S+]([O-])c1nc2c(n1-c1ccccn1)CCCC2 (configuration not stated) |
| – | 0 | Not Active | CCN(CC)c1ccccc1C[S+]([O-])c1nc2c(n1-c1ccncc1)CCC2 (configuration not stated) |
| 32 | 80 | – | CN(C)c1ccccc1C[S+]([O-])c1ncc[nH]1 (configuration not stated) |

| IC50 [1] [µM] | inhibition [2] [%] | IC50 [3] | Structure (SMILES) |
| --- | --- | --- | --- |
| 20 | 64 | – | CC(=O)Nc1ccc(-n2ccnc2[S+]([O-])Cc2ccccc2N(C)C)nc1 (configuration not stated) |
| – | 30 | Not Active | CN(C)c1ccccc1C[S+]([O-])c1nccn1-c1cnccn1 (configuration not stated) |
| 11 | 98 | – | CCN(CC)c1ccccc1C[S+]([O-])c1nc2c(n1-c1ccccn1)CCC2 (configuration not stated) |
| 81 | 90 | – | CNc1ccccc1C[S+]([O-])c1nc2c(n1-c1ncccc1C)CCC2 (configuration not stated) |
| 3.4 | 59 | – | COc1cc(C)nc(-n2ccnc2[S+]([O-])Cc2ccccc2N(C)C)c1 (configuration not stated) |
| 95 | 73 | – | COc1cccnc1-n1c([S+]([O-])Cc2ccccc2N(C)C)nc2c1CCC2 (configuration not stated) |
| – | 0 | Not Active | CN(C)c1ccccc1C[S+]([O-])c1ncc(-c2ccccc2)n1Cc1ccccc1 (configuration not stated) |
| 55 | 12 | – | CN(C)c1ccccc1C[S+]([O-])c1nc2c(n1Cc1ccccn1)CCC2 (configuration not stated) |
| 33 | 100 | – | COc1cccnc1-n1ccnc1[S+]([O-])Cc1ccccc1N(C)C (configuration not stated) |
| 11 | 0 | – | Cc1cc(C)nc(-n2ccnc2[S+]([O-])Cc2ccccc2N(C)C)c1 (configuration not stated) |
| – | 0 | – | CN(C)c1ccccc1C[S+]([O-])c1nccn1-c1ccc(Br)cn1 (configuration not stated) |
| – | 0 | Not Active | CN(C)c1ccccc1C[S+]([O-])c1nc(-c2ccccc2)cn1C (configuration not stated) |
| 13 | 0 | – | COc1cccc(-n2ccnc2[S+]([O-])Cc2ccccc2N(C)C)n1 (configuration not stated) |
| – | 0 | Not Active | CN(C)c1ccccc1C[S+]([O-])c1nc(-c2ccccc2)cn1Cc1ccccc1 (configuration not stated) |
| 14 | 72 | – | CN(C)c1ccccc1C[S+]([O-])c1nccn1Cc1ccccc1 (configuration not stated) |
| – | 90 | Not Active | COc1cccnc1-n1ccnc1[S+]([O-])Cc1ccccc1NC(C)=O (configuration not stated) |
| – | 30 | Not Active | CN(C)c1ccccc1C[S+]([O-])c1nccn1-c1ncccn1 (configuration not stated) |
| – | 88 | Not Active | [O-][S+](Cc1ccccc1-n1cccc1)c1nccn1-c1ccccn1 (configuration not stated) |
| 100 | 79 | – | COc1cccnc1-n1ccnc1[S+]([O-])Cc1ccccc1N (configuration not stated) |
